The values that follow come from ChEMBL document CHEMBL4732166, “Thiosemicarbazide binds with the dicopper center in the competitive inhibition of mushroom tyrosinase enzyme: Synthesis and molecular modeling of theophylline analogues” (Bioorg Med Chem Lett, 2021).

pKi: −log10 of the molar value.

For orientation: pKi means the Ki on a negative log10 scale, so that one unit is a factor of ten. Read a high pKi as a small Ki. One may read the inhibition as the change of the read-out against control, counted positive when it falls. Broadly, the Ki is a measure of affinity in units of concentration, obtained from inhibition or displacement.

The first assay addresses T1, Mushroom tyrosinase (Agaricus bisporus, UniProt O42713+Q00024+C7FF04+C7FF05). Description: Inhibition of mushroom tyrosinase using […] as substrate.
Conditions: not given
In turn, `CCn1c(Oc2ccc(/C=N/NC(N)=S)cc2)nc2c1c(=O)n(C)c(=O)n2C` gave a negative logarithm of the Ki (pKi) of 6.17.

The target in the next assay is Mushroom tyrosinase (Agaricus bisporus) (UniProt O42713+Q00024+C7FF04+C7FF05). Particulars: dose 50.0 µM.
Description: Inhibition of mushroom tyrosinase using PNP-G as substrate at 50 nM relative to control
In turn, `CCn1c(N/N=C/c2nc3ccccc3[nH]2)nc2c1c(=O)n(C)c(=O)n2C` came in with an inhibition of 27%.

With `CCn1c(Oc2ccc(C=C(C#N)C#N)cc2)nc2c1c(=O)n(C)c(=O)n2C`, the inhibition was above 40%.

In turn, `CCn1c(Oc2ccc(/C=N/N=C3/C(=O)Nc4ccccc43)cc2)nc2c1c(=O)n(C)c(=O)n2C` showed an inhibition above 40%.

`CCn1c(Oc2ccc(/C=N/Nc3ccccn3)cc2)nc2c1c(=O)n(C)c(=O)n2C`: the inhibition is above 40%.

Turning to `CCn1c(NN)nc2c1c(=O)n(C)c(=O)n2C`, the inhibition was above 40%.

In turn, `CCn1c(Oc2ccc(/C=N/N)cc2)nc2c1c(=O)n(C)c(=O)n2C` had an inhibition above 40%.

In turn, `CCn1c(Oc2ccc(/C=N\NC(=O)c3cccnc3)cc2)nc2c1c(=O)n(C)c(=O)n2C` yielded an inhibition of 40.3%.

Compound `CCn1c(Oc2ccc(C=O)cc2)nc2c1c(=O)n(C)c(=O)n2C` returned an inhibition of 29.5%.

As to `CCn1c(Oc2ccc(C3C(C#N)=C(N)Oc4[nH]c(=S)[nH]c(=O)c43)cc2)nc2c1c(=O)n(C)c(=O)n2C` (stereo not drawn), the inhibition turned out to be 32.7%.

With `CCn1c(Oc2ccc(/C=N/NC(N)=S)cc2)nc2c1c(=O)n(C)c(=O)n2C`, the inhibition was above 40%.

For the compound `CCn1c(Oc2ccc(/C=N/N=C3/NC(=O)CS3)cc2)nc2c1c(=O)n(C)c(=O)n2C`, the inhibition was determined as 29.4%.

`CCn1c(Oc2ccc(-c3nc(-c4ccccc4)c(-c4ccccc4)[nH]3)cc2)nc2c1c(=O)n(C)c(=O)n2C` returned an inhibition above 40%.

Consider `CCn1c(Oc2ccc(C=C3C(=O)NC(=S)NC3=O)cc2)nc2c1c(=O)n(C)c(=O)n2C`, for which the inhibition came out at 30.2%.

The compound `CCn1c(Oc2ccc(/C=N\Nc3c(F)c(F)c(F)c(F)c3F)cc2)nc2c1c(=O)n(C)c(=O)n2C` displayed an inhibition above 40%.

With `CCn1c(Oc2ccc(C3C4=C(CC(C)(C)CC4=O)NC4=C3C(=O)CC(C)(C)C4)cc2)nc2c1c(=O)n(C)c(=O)n2C`, the inhibition is above 40%.

The compound `CCn1c(Oc2ccc(-c3nnc(NC(C)=O)s3)cc2)nc2c1c(=O)n(C)c(=O)n2C` registered an inhibition of 33.6%.

A further assay has as its target T1, Mushroom tyrosinase. Description: Competitive inhibition of mushroom tyrosinase using […] as substrate by Lineweaver-Burk plot analysis.
Conditions: not given
`CCn1c(Oc2ccc(/C=N/NC(N)=S)cc2)nc2c1c(=O)n(C)c(=O)n2C` registered a Ki of 0.67 µM.
